Measured values published in ChEMBL document CHEMBL3045479, “Synthesis and anti-cancer activity of some novel C-17 analogs of ursolic and oleanolic acids” (2013).
Counter-ions that a name gives are not always drawn.

What was measured:
Type in all cases: functional
THP-1 = assay: Growth inhibition of Homo sapiens (human) THP1 cells at 10 uM after 48 hr by SRB assay; details: THP-1, 48 h, read-out: GI
PC-3 = assay: Growth inhibition of Homo sapiens (human) PC3 cells at 10 uM after 48 hr by SRB assay; details: PC-3, 48 h, read-out: GI
A549 = assay: Growth inhibition of Homo sapiens (human) A549 cells at 10 uM after 48 hr by SRB assay; details: A549, 48 h, read-out: GI
COLO 205 = assay: Growth inhibition of Homo sapiens (human) COLO205 cells at 10 uM after 48 hr by SRB assay; details: COLO 205, 48 h, read-out: GI
IMR-32 = assay: Growth inhibition of Homo sapiens (human) IMR32 cells at 10 uM after 48 hr by SRB assay; details: IMR-32, 48 h, read-out: GI
SiHa = assay: Growth inhibition of Homo sapiens (human) SiHa cells at 10 uM after 48 hr by SRB assay; details: read-out: GI
HeLa = assay: Growth inhibition of Homo sapiens (human) HeLa cells at 10 uM after 48 hr by SRB assay; details: read-out: GI
SW-620 = assay: Growth inhibition of Homo sapiens (human) SW620 cells at 10 uM after 48 hr by SRB assay; details: SW-620, 48 h, read-out: GI

Row | SMILES | inhibition of growth at 10 µM (THP-1) [%] | inhibition of growth at 10 µM (PC-3) [%] | inhibition of growth at 10 µM (A549) [%] | inhibition of growth at 10 µM (COLO 205) [%] | inhibition of growth at 10 µM (IMR-32) [%] | inhibition of growth at 10 µM (SiHa) [%] | inhibition of growth at 10 µM (HeLa) [%] | inhibition of growth at 10 µM (SW-620) [%]
1 | C[C@H]1[C@H](C)CC[C@]2(C(=O)OCCCCBr)CC[C@]3(C)C(=CC[C@@H]4[C@@]5(C)CC[C@H](O)C(C)(C)[C@@H]5CC[C@]43C)[C@H]12 [BROMOBUTYL-3BETA-HYDROXY-URS-12-EN-28-OATE] | 7 | 23 | 2 | 10 | – | – | – | –
2 | C[C@H]1[C@H](C)CC[C@]2(C(=O)OCCCCCCCCCBr)CC[C@]3(C)C(=CC[C@@H]4[C@@]5(C)CC[C@H](O)C(C)(C)[C@@H]5CC[C@]43C)[C@H]12 [BROMONONYL-3BETA-HYDROXY-URS-12-EN-28-OATE] | 0 | 9 | 0 | 3 | – | – | – | –
3 | COC(=O)[C@]12CC[C@@H](C)[C@H](C)[C@H]1C1=CC[C@@H]3[C@@]4(C)CC[C@H](O)C(C)(C)[C@@H]4CC[C@@]3(C)[C@]1(C)CC2 [METHYL URSOLATE] | – | – | 20 | 0 | 11 | 21 | 2 | 0
4 | CC(C)=CCOC(=O)[C@]12CCC(C)(C)C[C@H]1C1=CC[C@@H]3[C@@]4(C)CC[C@H](O)C(C)(C)[C@@H]4CC[C@@]3(C)[C@]1(C)CC2 [3BETA-HYDROXY-OLEAN-12-EN-28-PRENYLATE] | – | – | 25 | 0 | 16 | 36 | 5 | 13
5 | CC(C)=CCOC(=O)[C@]12CC[C@@H](C)[C@H](C)[C@H]1C1=CC[C@@H]3[C@@]4(C)CC[C@H](O)C(C)(C)[C@@H]4CC[C@@]3(C)[C@]1(C)CC2 | – | – | 12 | 0 | 19 | 21 | 24 | 2
6 | C[C@H]1[C@H](C)CC[C@]2(C(=O)OCCCCCCCCCCCCBr)CC[C@]3(C)C(=CC[C@@H]4[C@@]5(C)CC[C@H](O)C(C)(C)[C@@H]5CC[C@]43C)[C@H]12 [BROMODODECYL-3BETA-HYDROXY-URS-12-EN-28-OATE] | 0 | 0 | 0 | 0 | – | – | – | –
7 | C#CCOC(=O)[C@]12CCC(C)(C)C[C@H]1C1=CC[C@@H]3[C@@]4(C)CC[C@H](O)C(C)(C)[C@@H]4CC[C@@]3(C)[C@]1(C)CC2 [3BETA-HYDROXY-OLEN-12-EN-28-PROPARGYLATE] | – | – | 20 | 15 | 16 | 30 | 27 | 2
8 | C=CCOC(=O)[C@]12CC[C@@H](C)[C@H](C)[C@H]1C1=CC[C@@H]3[C@@]4(C)CC[C@H](O)C(C)(C)[C@@H]4CC[C@@]3(C)[C@]1(C)CC2 [3BETA-HYDROXY-URS-12-EN-28-ALLYLATE] | – | – | 19 | 0 | 20 | 25 | 0 | 0
9 | COC(=O)COC(=O)[C@]12CC[C@@H](C)[C@H](C)[C@H]1C1=CC[C@@H]3[C@@]4(C)CC[C@H](O)C(C)(C)[C@@H]4CC[C@@]3(C)[C@]1(C)CC2 [3BETA-HYDROXY-URS-12-EN-28-METHYL ACETOACETATE] | – | – | 23 | 0 | 18 | 24 | 11 | 0
10 | C[C@H]1[C@H](C)CC[C@]2(C(=O)OCCCBr)CC[C@]3(C)C(=CC[C@@H]4[C@@]5(C)CC[C@H](O)C(C)(C)[C@@H]5CC[C@]43C)[C@H]12 [BROMOPROPYL-3BETA-HYDROXY-URS-12-EN-28-OATE] | 68 | 0 | 9 | 10 | – | – | – | –
11 | COC(=O)[C@]12CCC(C)(C)C[C@H]1C1=CC[C@@H]3[C@@]4(C)CC[C@H](O)C(C)(C)[C@@H]4CC[C@@]3(C)[C@]1(C)CC2 [METHYL OLEANOLATE] | – | – | 48 | 0 | 55 | 21 | 18 | 8
12 | C[C@H]1[C@H](C)CC[C@]2(C(=O)OCCBr)CC[C@]3(C)C(=CC[C@@H]4[C@@]5(C)CC[C@H](O)C(C)(C)[C@@H]5CC[C@]43C)[C@H]12 | 54 | 23 | 28 | 12 | – | – | – | –
13 | C=CCOC(=O)[C@]12CCC(C)(C)C[C@H]1C1=CC[C@@H]3[C@@]4(C)CC[C@H](O)C(C)(C)[C@@H]4CC[C@@]3(C)[C@]1(C)CC2 [3BETA-HYDROXY-OLEAN-12-EN-28-ALLYLATE] | – | – | 31 | 0 | 16 | 15 | 0 | 1
14 | CO[C@@]12[C@H](COC(N)=O)C3=C(C(=O)C(C)=C(N)C3=O)N1C[C@@H]1N[C@@H]12 [MITOMYCIN] | – | 61 | – | – | – | – | – | –
15 | O=c1[nH]cc(F)c(=O)[nH]1 [FLUOROURACIL] | 69 | – | 30 | 47 | 29 | 38 | 36 | 42
16 | COC(=O)COC(=O)[C@]12CCC(C)(C)C[C@H]1C1=CC[C@@H]3[C@@]4(C)CC[C@H](O)C(C)(C)[C@@H]4CC[C@@]3(C)[C@]1(C)CC2 [3BETA-HYDROXY-OLEAN-12-EN-28-METHYL ACETOACETATE] | – | – | 25 | 2 | 18 | 19 | 13 | 4
17 | C[C@H]1[C@H](C)CC[C@]2(C(=O)OCCCCCBr)CC[C@]3(C)C(=CC[C@@H]4[C@@]5(C)CC[C@H](O)C(C)(C)[C@@H]5CC[C@]43C)[C@H]12 [BROMOPENTYL-3BETA-HYDROXY-URS-12-EN-28-OATE] | 10 | 6 | 7 | 1 | – | – | – | –
18 | CC(=O)O[C@H]1C(=O)[C@@]2(C)[C@H]([C@H](OC(=O)c3ccccc3)[C@]3(O)C[C@H](OC(=O)[C@H](O)[C@@H](NC(=O)c4ccccc4)c4ccccc4)C(C)=C1C3(C)C)[C@]1(OC(C)=O)CO[C@@H]1C[C@@H]2O [PACLITAXEL] | – | – | 44 | 67 | 30 | – | 45 | 36
19 | COc1cccc2c1C(=O)c1c(O)c3c(c(O)c1C2=O)C[C@@](O)(C(=O)CO)C[C@@H]3O[C@H]1C[C@H](N)[C@H](O)[C@H](C)O1 [DOXORUBICIN HYDROCHLORIDE] | – | – | 50 | 89 | 82 | – | 58 | 38
20 | C[C@H]1[C@H](C)CC[C@]2(C(=O)OCCCCCCCCBr)CC[C@]3(C)C(=CC[C@@H]4[C@@]5(C)CC[C@H](O)C(C)(C)[C@@H]5CC[C@]43C)[C@H]12 [BROMOOCTYL-3BETA-HYDROXY-URS-12-EN-28-OATE] | 4 | 1 | 0 | 0 | – | – | – | –
21 | CC1(C)CC[C@]2(C(=O)O)CC[C@]3(C)C(=CC[C@@H]4[C@@]5(C)CC[C@H](O)C(C)(C)[C@@H]5CC[C@]43C)[C@@H]2C1 [OLEANOLIC_ACID] | – | – | 24 | 33 | 22 | 3 | 26 | 24
22 | C[C@H]1[C@H](C)CC[C@]2(C(=O)OCBr)CC[C@]3(C)C(=CC[C@@H]4[C@@]5(C)CC[C@H](O)C(C)(C)[C@@H]5CC[C@]43C)[C@H]12 [BROMOMETHYL-3BETA-HYDROXY-URS-12-EN-28-OATE] | 49 | 6 | 7 | 13 | – | – | – | –
23 | C[C@H]1[C@H](C)CC[C@]2(C(=O)OCCCCCCBr)CC[C@]3(C)C(=CC[C@@H]4[C@@]5(C)CC[C@H](O)C(C)(C)[C@@H]5CC[C@]43C)[C@H]12 [BROMOHEXYL-3BETA-HYDROXY-URS-12-EN-28-OATE] | 3 | 0 | 0 | 0 | – | – | – | –
24 | C#CCOC(=O)[C@]12CC[C@@H](C)[C@H](C)[C@H]1C1=CC[C@@H]3[C@@]4(C)CC[C@H](O)C(C)(C)[C@@H]4CC[C@@]3(C)[C@]1(C)CC2 [3BETA-HYDROXY-URS-12-EN-28-PROPARGYLATE] | – | – | 24 | 0 | 11 | 4 | 0 | 0
